Data from ChEMBL document CHEMBL3885881, “DrugMatrix”.

Species: Rattus norvegicus
Assay: DrugMatrix - Regimen: Daily Repeat
Type: toxicity, organism-based, Sprague-Dawley
Set-up: regimen Daily Repeat, gender Male, age 6-8 weeks
Conditions: in vivo, po, route oral GAVAGE, vehicle 100 % WATER; for ABSOLUTE BASOPHIL / ABSOLUTE EOSINOPHIL / ABSOLUTE LYMPHOCYTE / ABSOLUTE MONOCYTE / ABSOLUTE SEGMENTED NEUTROPHIL / BASOPHIL / EOSINOPHIL / ERYTHROCYTE COUNT / HEMATOCRIT / HEMOGLOBIN / LEUKOCYTE COUNT / LYMPHOCYTE / MEAN CORPUSCULAR HEMOGLOBIN / MEAN CORPUSCULAR HEMOGLOBIN CONCENTRATION / MEAN CORPUSCULAR VOLUME / MONOCYTE / NEUTROPHIL / NUCLEATED RED BLOOD CELLS / PLATELET COUNT: tissue Blood; for ALANINE AMINOTRANSFERASE / ALBUMIN / ALKALINE PHOSPHATASE / ASPARTATE AMINOTRANSFERASE / BLOOD UREA NITROGEN / CARBON DIOXIDE / CHLORIDE / CHOLESTEROL / CREATINE PHOSPHOKINASE / CREATININE / GLUCOSE / LACTATE DEHYDROGENASE / LIPASE / PHOSPHORUS / POTASSIUM / SODIUM / TOTAL BILIRUBIN / TOTAL PROTEIN / URIC ACID: tissue Plasma
[1] = 8 mg/kg, 120 h, dose level Low, time 5 day
[2] = 100 mg/kg, 72 h, dose level High, time 3 day
[3] = 100 mg/kg, 120 h, dose level High, time 5 day

CCN(C(C)=O)c1cccc(-c2ccnc3c(C#N)cnn23)c1 [ZALEPLON]
ABSOLUTE BASOPHIL [1]: 0 CELLS/uL
ABSOLUTE EOSINOPHIL [1]: 56.67 CELLS/uL
ABSOLUTE LYMPHOCYTE [1]: 12514.33 CELLS/uL
ABSOLUTE MONOCYTE [1]: 39.33 CELLS/uL
ABSOLUTE SEGMENTED NEUTROPHIL [1]: 1223 CELLS/uL
BASOPHIL [1]: 0%
EOSINOPHIL [1]: 0.33%
ERYTHROCYTE COUNT [1]: 5.65 x10E6/uL
HEMATOCRIT [1]: 36.27%
HEMOGLOBIN [1]: 14.43 G/DL
LEUKOCYTE COUNT [1]: 13.83 x10E3/uL
LYMPHOCYTE [1]: 90.67%
MEAN CORPUSCULAR HEMOGLOBIN [1]: 25.57 pg
MEAN CORPUSCULAR HEMOGLOBIN CONCENTRATION [1]: 39.8 G/DL
MEAN CORPUSCULAR VOLUME [1]: 64.17 fL
MONOCYTE [1]: 0.33%
NEUTROPHIL [1]: 8.67%
NUCLEATED RED BLOOD CELLS [1]: 0.33 /100WBC
PLATELET COUNT [1]: 1230.33 x10E3/uL
ALANINE AMINOTRANSFERASE [1]: 55.33 u/L
ALBUMIN [1]: 4.17 G/DL
ALKALINE PHOSPHATASE [1]: 388.67 u/L
ASPARTATE AMINOTRANSFERASE [1]: 80.67 u/L
BLOOD UREA NITROGEN [1]: 14.33 mg/dL
CARBON DIOXIDE [1]: 31.67 mmol/L
CHLORIDE [1]: 101.67 MEQ/L
CHOLESTEROL [1]: 66.33 mg/dL
CREATINE PHOSPHOKINASE [1]: 267.33 u/L
CREATININE [1]: 0.15 mg/dL
GLUCOSE [1]: 126.67 mg/dL
LACTATE DEHYDROGENASE [1]: 359 u/L
LIPASE [1]: 11.33 u/L
PHOSPHORUS [1]: 11.67 mg/dL
POTASSIUM [1]: 6.04 MEQ/L
SODIUM [1]: 144.43 MEQ/L
TOTAL BILIRUBIN [1]: 0.17 mg/dL
TOTAL PROTEIN [1]: 6 G/DL
URIC ACID [1]: 1.4 mg/dL
ABSOLUTE BASOPHIL [2]: 0 CELLS/uL
ABSOLUTE EOSINOPHIL [2]: 0 CELLS/uL
ABSOLUTE LYMPHOCYTE [2]: 12984 CELLS/uL
ABSOLUTE MONOCYTE [2]: 96.67 CELLS/uL
ABSOLUTE SEGMENTED NEUTROPHIL [2]: 1352.67 CELLS/uL
BASOPHIL [2]: 0%
EOSINOPHIL [2]: 0%
ERYTHROCYTE COUNT [2]: 5.72 x10E6/uL
HEMATOCRIT [2]: 36.9%
HEMOGLOBIN [2]: 14 G/DL
LEUKOCYTE COUNT [2]: 14.43 x10E3/uL
LYMPHOCYTE [2]: 90%
MEAN CORPUSCULAR HEMOGLOBIN [2]: 24.5 pg
MEAN CORPUSCULAR HEMOGLOBIN CONCENTRATION [2]: 37.97 G/DL
MEAN CORPUSCULAR VOLUME [2]: 64.5 fL
MONOCYTE [2]: 0.67%
NEUTROPHIL [2]: 9.33%
NUCLEATED RED BLOOD CELLS [2]: 0 /100WBC
PLATELET COUNT [2]: 1335.67 x10E3/uL
ALANINE AMINOTRANSFERASE [2]: 82.33 u/L
ALBUMIN [2]: 4.13 G/DL
ALKALINE PHOSPHATASE [2]: 449.67 u/L
ASPARTATE AMINOTRANSFERASE [2]: 80 u/L
BLOOD UREA NITROGEN [2]: 11.67 mg/dL
CARBON DIOXIDE [2]: 33.33 mmol/L
CHLORIDE [2]: 106 MEQ/L
CHOLESTEROL [2]: 71 mg/dL
CREATINE PHOSPHOKINASE [2]: 245.67 u/L
CREATININE [2]: 0.2 mg/dL
GLUCOSE [2]: 139 mg/dL
LACTATE DEHYDROGENASE [2]: 132.33 u/L
LIPASE [2]: 10 u/L
PHOSPHORUS [2]: 11.2 mg/dL
POTASSIUM [2]: 5.9 MEQ/L
SODIUM [2]: 144.73 MEQ/L
TOTAL BILIRUBIN [2]: 0.17 mg/dL
TOTAL PROTEIN [2]: 5.93 G/DL
URIC ACID [2]: 1.4 mg/dL
ABSOLUTE BASOPHIL [3]: 0 CELLS/uL
ABSOLUTE EOSINOPHIL [3]: 0 CELLS/uL
ABSOLUTE LYMPHOCYTE [3]: 12362.67 CELLS/uL
ABSOLUTE MONOCYTE [3]: 101.33 CELLS/uL
ABSOLUTE SEGMENTED NEUTROPHIL [3]: 1236 CELLS/uL
BASOPHIL [3]: 0%
EOSINOPHIL [3]: 0%
ERYTHROCYTE COUNT [3]: 6.29 x10E6/uL
HEMATOCRIT [3]: 38.53%
HEMOGLOBIN [3]: 15 G/DL
LEUKOCYTE COUNT [3]: 13.7 x10E3/uL
LYMPHOCYTE [3]: 89.33%
MEAN CORPUSCULAR HEMOGLOBIN [3]: 23.83 pg
MEAN CORPUSCULAR HEMOGLOBIN CONCENTRATION [3]: 38.93 G/DL
MEAN CORPUSCULAR VOLUME [3]: 61.3 fL
MONOCYTE [3]: 0.67%
NEUTROPHIL [3]: 10%
NUCLEATED RED BLOOD CELLS [3]: 0 /100WBC
PLATELET COUNT [3]: 1219.33 x10E3/uL
ALANINE AMINOTRANSFERASE [3]: 61.67 u/L
ALBUMIN [3]: 4.3 G/DL
ALKALINE PHOSPHATASE [3]: 331.33 u/L
ASPARTATE AMINOTRANSFERASE [3]: 91 u/L
BLOOD UREA NITROGEN [3]: 14.67 mg/dL
CARBON DIOXIDE [3]: 28.67 mmol/L
CHLORIDE [3]: 102 MEQ/L
CHOLESTEROL [3]: 83.33 mg/dL
CREATINE PHOSPHOKINASE [3]: 520 u/L
CREATININE [3]: 0.17 mg/dL
GLUCOSE [3]: 157 mg/dL
LACTATE DEHYDROGENASE [3]: 238.67 u/L
LIPASE [3]: 11 u/L
PHOSPHORUS [3]: 11.7 mg/dL
POTASSIUM [3]: 6.45 MEQ/L
SODIUM [3]: 144.67 MEQ/L
TOTAL BILIRUBIN [3]: 0.2 mg/dL
TOTAL PROTEIN [3]: 6.53 G/DL
URIC ACID [3]: 2.47 mg/dL
